This is an account of results in patent publication EP2711007A1, “4-Aminopyrazolo[3,4-d]pyrimidine for use in treating or preventing primary and metastatic breast and prostate cancer” (Institut Univ. de Ciència i Tecnologia, S.A., priority 2012, dated 2014).

Test [1] relates to MCF-7 breast cancer cell line. Kind of test: Tetrazolium dye proliferation (WST-1) assay, MCF-7. In kind it is cell-based. Also on record: proliferation inhibitory effect compared with Gemcitabine: concentration or dose not given beside the values. The following applies: 5 days incubation; for proliferation inhibitory effect compared with Gemcitabine: Gemcitabine set to 0, negative = less inhibition than Gemcitabine; for inhibition at 1 µM: Homo sapiens, MCF7, 120 h, concentration not given (primary screen 1 microM), mean±SD, read-out: proliferation inhibitory effect compared with 0.1 % DMSO vehicle control group. As for the experimental part: (§1) Determination of the ability of compound of formula (I) and combinations between compound of formula (I) and certain therapeutic compounds described herein to inhibit the proliferation of target cells was assayed in vitro against breast and prostate tumour cells. The antiproliferative activity was measured through the commercial WST-1 proliferation measurement reagent in a two-step screening procedure: […] MCF-7 and LNCaP cells were purchased from ATCC. PNT1A cells were purchased from ECACC. The cells were grown in a subconfluent condition to maintain a logarithmic growth phase. The cells were dislodged for passage using trypsin-EDTA. The proliferation of the cell lines was evaluated by using the commercial WST-1 proliferation measurement reagent. Cells from exponentially growing cultures were plated on the 96 well plates at the appropriate seeding density in the optimal medium to give logarithmic growth over the course of the assay. The plates with MCF-7 and PNT1A cells were incubated 24h at 37°C in a humidified CO2 atmosphere to allow for recovery from trypsinization before adding of test and control compounds. […] Control compounds Ara-C and Gemcitabine stock solutions were prepared in sterile water. Each test and control compound was diluted twice the final concentration in appropriate media. Half of the final well volume of each dilution was added in six parallels to plates containing cells. […] The plates were returned to 37°C in a humidified CO2 atmosphere and incubated for 5 days. […] Following incubation the absorbance at a wavelength of 450nm was measured from each well using a multilabel counter. The absorbance at wavelength 450nm correlates linearly to number of viable cells in the well. The means and standard deviations for parallel samples were calculated and plotted as a graph.
On the technique in general: Tetrazolium dyes change colour on reduction, which living cells bring about.

Test [2] relates to PNT1A immortalized normal prostate cell line. Kind of test: Tetrazolium dye proliferation (WST-1) assay, PNT1A. In kind it is cell-based. The conditions noted are these: Homo sapiens, 120 h, 5 days incubation, concentration not given (primary screen 1 microM), mean±SD, read-out: proliferation inhibitory effect compared with 0.1 % DMSO vehicle control group. How it is done:
as §1

Test [3] concerns LNCaP prostate cancer cell line. In words: Tetrazolium dye proliferation (WST-1) assay, LNCaP. It is filed as cell-based. The conditions noted are these: 5 days incubation; for inhibition at 1 µM: Homo sapiens, 120 h, concentration not given (primary screen 1 microM), mean±SD, read-out: proliferation inhibitory effect compared with 0.1 % DMSO vehicle control group; for proliferation inhibitory effect compared with Gemcitabine: Gemcitabine set to 0, negative = less inhibition than Gemcitabine. How it is done: as §1

A further test deals with pancreatic cancer cells. Kind of test: Effect on other cancer cells (pancreatic). The conditions noted are these: other type of cancer cells such as pancreatic cancer cells. It is filed as cell-based.
The subject of test [4] is RC and S790 mouse mammary carcinomas. The conditions noted are these: considered non active; cited from earlier work.
For a further test, the system named is acute leukaemia. The conditions noted are these: up to 9 patients treated; cited from earlier work.

“5-Bromo-2'-deoxyuridine (Broxuridine) [Compound E]”: in test [1], the “proliferation inhibitory effect compared with Gemcitabine” value is given as -221.1±50.3%.

Consider “5-Iodo-2'-deoxyuridine (Idoxuridine) [Compound F]”, for which the “proliferation inhibitory effect compared with Gemcitabine” value in test [1] is given as -174.8±33.9%.

Consider `Nc1ccn([C@@H]2O[C@H](CO)[C@@H](O)[C@@H]2O)c(=O)n1` [Ara-C], for which the inhibition at 1 µM was 78.3 ± 3.9% in test [1], 66.5 ± 1.8% in test [2] and 50.1 ± 3.4% in test [3].

On to `Nc1ncnc2[nH]ncc12` [Compound I, 4-Aminopyrazolo[3,4-d]pyrimidine], for which the “effect on pancreatic cancer cells” value in the test with pancreatic cancer cells is listed as “no effect was detected”. In addition, in test [4], the tumor growth inhibition is listed as 10%. In addition, the “antitumour activity in man” value in the test on acute leukaemia is “did not demonstrate any antitumour activity in man”. In addition, the “proliferation inhibitory effect compared with Gemcitabine” value is 93.8±2.4% in test [1] and 93.1±0.7% in test [3]. Besides, the inhibition at 1 µM is 98.6 ± 0.5% in test [1], 18 ± 2.1% in test [2] and 97.9 ± 0.5% in test [3].

For `O=c1[nH]c(=O)n([C@H]2C[C@H](O)[C@@H](CO)O2)cc1F` [Floxuridine], the “proliferation inhibitory effect compared with Gemcitabine” value in test [1] was -50.4±35.6%; in test [3] it was -34.7±3.1%. The inhibition at 1 µM in test [1] worked out at 66.2 ± 8%; in test [2], 88.3 ± 0.6%; in test [3], 58.3 ± 1%.

On to `Nc1ccn([C@@H]2O[C@H](CO)[C@@H](O)C2(F)F)c(=O)n1` [Gemcitabine, 2',2'-difluorodeoxycytidine], for which the “proliferation inhibitory effect compared with Gemcitabine” value in test [1] and in test [3] was 0% throughout. Further, the results for the inhibition at 1 µM in test [1], in test [2] and in test [3] were 80 ± 3.7%, 98.8 ± 0.3% and 71.2 ± 0.8%, respectively.
